According to article PMC3000476, “Amino acid derivatives are substrates or non-transported inhibitors of the amino acid transporter PAT2 (slc36a2)” (Biochimica et Biophysica Acta, 2011):

Tests used:
[1] = molecular target: T1, PAT2 (Rattus norvegicus, UniProt Q8K415); test: inhibition of L-proline-induced current (TEVC) in PAT2-expressing oocytes; also uptake inhibition IC50 […]; type: cell-based
T1 construct: gene Slc36a2

[2] = molecular target: T1, PAT2
[3] = molecular target: T1, PAT2; test: L-[3H]pipecolic acid uptake and TEVC competition with glycine in PAT2-expressing oocytes; type: cell-based
[4] = molecular target: T1, PAT2; test: inhibition of L-[3H]proline uptake in PAT2-expressing Xenopus oocytes; TEVC; no trans-stimulation of efflux; type: cell-based
[5] = molecular target: T1, PAT2; test: competition with L-[3H]proline uptake in PAT2-expressing Xenopus oocytes; TEVC; type: cell-based
[6] = molecular target: T1, PAT2; test: competition with L-[3H]proline uptake in PAT2-expressing Xenopus oocytes; type: cell-based

T1 sequence (Q8K415 whole entry): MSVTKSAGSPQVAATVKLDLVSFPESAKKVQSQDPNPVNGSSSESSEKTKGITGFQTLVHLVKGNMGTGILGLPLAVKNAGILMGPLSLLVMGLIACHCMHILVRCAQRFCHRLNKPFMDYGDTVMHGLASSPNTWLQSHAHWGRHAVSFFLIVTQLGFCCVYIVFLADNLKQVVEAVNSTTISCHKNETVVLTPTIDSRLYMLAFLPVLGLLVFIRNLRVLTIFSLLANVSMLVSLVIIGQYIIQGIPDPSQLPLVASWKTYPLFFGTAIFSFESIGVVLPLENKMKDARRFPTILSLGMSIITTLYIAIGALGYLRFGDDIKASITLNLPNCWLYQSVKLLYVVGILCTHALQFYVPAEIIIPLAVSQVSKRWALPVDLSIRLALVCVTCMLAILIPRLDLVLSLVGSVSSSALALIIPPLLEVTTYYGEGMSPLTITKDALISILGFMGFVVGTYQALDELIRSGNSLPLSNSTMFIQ

`CC(N)(Cc1c[nH]c2ccccc12)C(=O)O` (racemic) [Me-Trp, α-methyl-D,L-tryptophan] showed an IC50 [1] of 2700 ± 100 µM.

`NCC(=O)O` [Gly, glycine] was tested, and the “[3H]glycine uptake, TEVC current and trans-stimulation of L-[3H]proline efflux i” value [2] was 934 ± 22 pmol oocyte^− 1 (40 min)^− 1.

`O=C(O)[C@@H]1CCCCN1` [L-Pip, L-pipecolic acid] was tested, and the “L-[3H]pipecolic acid uptake” value [3] was 224 ± 19 pmol oocyte^− 1 (40 min)^− 1.

`N[C@@H](Cc1c[nH]c2ccc(O)cc12)C(=O)O` [OH-Trp, 5-hydroxy-L-tryptophan] gave an IC50 [4] of 1600 ± 400 µM.

For `O=C(O)[C@H]1NCC[C@@H]1O` [T3HP, trans-3-hydroxy-L-proline], the IC50 [5] was 13100 ± 4200 µM.

`O=C(O)[C@@H]1C[C@@H](O)CN1` [T4HP, trans-4-hydroxy-L-proline] gave an IC50 [6] of 700 ± 200 µM.
